We go through five molecules from patent US10980768B2, “Composition containing carboplatin and use” (SYN-NAT PRODUCTS ENTERPRISE LLC, priority 2015, dated 2021).

Broadly, the IC50 is the concentration needed to halve the response being measured. High values mean lower potency, low ones higher potency.

Like-named read-outs stand apart in the source and are kept apart here.

Data set [1] deals with A498 cells. The data set is described as follows: Cell viability (MTS) assay in A498 cells, renal adenocarcinoma study. The format is cell-based. The note with it: A498 renal carcinoma cells, OD490 cell viability. The text has this:
(§1) Cell culture: A498 and ACHN cells were purchased from Tongbai Bio (Shanghai, China).

Data set [2] has as its system ACHN cells. The data set is described as follows: Cell viability (MTS) assay in ACHN cells, renal adenocarcinoma study. The format is cell-based. Conditions: ACHN renal carcinoma cells, OD490 cell viability.
From the text: as §1

The subject of data set [3] is HEK293 cells. The experiment in a line: Cell viability (MTS) assay in HEK293 cells, renal adenocarcinoma study. The format is cell-based, human. Conditions: HEK293 normal embryonic kidney cells.
Data set [4] has as its system HL-7002 cells. The data set is described as follows: Cell viability (MTS) assay in HL-7002 cells, renal adenocarcinoma study.
In data set [5] the test system is HL-60 cells. The experiment in a line: Cell viability (MTS) assay in HL-60 cells, leukemia study. Type of data set: cell-based. Conditions: HL-60 human promyelocytic leukemia cells, OD490 cell viability.
In data set [6] the test system is K562 cells. The data set is described as follows: Cell viability (MTS) assay in K562 cells, leukemia study. The format is cell-based, human. The note with it: for toxicity: K562 cells, result in words; for IC50: K562 human myelogenous leukemia cells, OD490 cell viability.
Data set [7] deals with HEK293 cells. The data set is described as follows: Cell viability (MTS) assay in HEK293 cells, leukemia study. The note with it: for IC50: Homo sapiens, HEK293; for toxicity: HEK293 cells, leukemia study, result in words.
Data set [8] has as its system HL-7002 cells. The note with it: leukemia study; for IC50: HL-7002 human fetal hepatic cells.
Experimental: After comparison of OD490 values of the tested agents and the control agents, an index of relative repression rate of cell proliferation was obtained. The IC50 value was calculated by using the SPSS16.0 software.
The cells were cultured in RPMI+5% Fetal Bovine Serum (FBS).
Cells treated with the solvents were used as negative controls, and carboplatin, etiposide and MTX were used as the positive controls. The cells were monitored daily, and the cell viability was evaluated with the Promega CellTiter 96 AQueous One Solution Cell Proliferation Assay (Promega, Madison, Wis., USA) according to the manufacture manuals. The cell viability was monitored at OD490 reading in a bio-spectrometer (Perkin Elmer, Walthan, Mass., USA).
Data analysis: The OD490 reading data were collected hourly from 1 h to 4 h after the addition of lysis buffer. The index of cell growth repression ratio was obtained by comparing the OD490 data of treatment to the negative control. The drug response rate IC50 was calculated with the SPSS 16.0 software.
Data set [9] has as its system melanoma. The experiment in a line: Case of a melanoma patient with multiple metastases in the brain and adrenal gland treated with DCP solution. Type of data set: in vivo, human. The source says:
The following case summarizes DCP's pharmaceutical use on a melanoma patient with multiple metastases in the brain and adrenal grand. A metastatic tumor mass firstly was detected at the right frontal and parietal lobe of a patient's brain by MRI, and was removed by surgery in one month later. However, a new tumor mass with edema around it was detected at the left of parietal lobe. The tumor grew bigger, and the edema around the tumor became worse about two months after the new tumor was detected. The patient was treated with DCP solution (150 mg of DCP in 250 mL aqueous solution one time for every three days) for about three weeks.
The left lateral ventricle was compressed. The sign of removed tumors could be distinguished at the right frontal and parietal lobe, and the postoperative repair was found in the right frontal parietal bone. The midline structure shifted to the right side.
After treatment with DCP solution for about three weeks, the patient was examined (FIG. 10). […] The tumors at the right frontal and parietal lobe were removed, and the midline structure was normal.

Where [10] appears, read: HL-7002 normal hepatocytes, renal adenocarcinoma study.
The mark [11] stands for this setting: after DCP solution for about three weeks.
[12] abbreviates: melanoma brain metastasis, 150 mg DCP in 250 mL every three days for about three weeks.

Turning to `O=c1[nH]cc(F)c(=O)[nH]1` [5-FU, fluorouracil], the half-inhibitory concentration (IC50) was found to be 18.2 µM in [1] (Homo sapiens); 6.45 µM in data set [2] (Homo sapiens); 45 µM in data set [3] (Homo sapiens); 356 µM in data set [4] (Homo sapiens, Hepatocyte).
`CN(Cc1cnc2nc(N)nc(N)c2n1)c1ccc(C(=O)N[C@@H](CCC(=O)O)C(=O)O)cc1` [MTX, Methotrexate]: the figures for the IC50 in [5] and in data set [7] were 15.3 µM and 17.6 µM, respectively. For the same molecule, the toxicity result in [6] was “did not show any toxicity”; in [8] (HL-7002 cells, result in words), “little toxicity”.
As for `N.N.O=C([O-])C1(C(=O)[O-])CCC1.[Pt+2]` [carboplatin], the IC50 was determined as 17.3 µM in data set [5]; 1210 µM in data set [6]; 18.4 µM in data set [1]; 11 µM in data set [2]; 410 µM in data set [3]; 503 µM in [8]. For the same molecule, the IC50 in data set [4] (setting [10]) came out at 1410 µM. Moreover, the toxicity entry in [7] is “no toxicity”.
Take `COc1cc([C@@H]2c3cc4c(cc3[C@@H](O[C@@H]3O[C@@H]5CO[C@@H](C)O[C@H]5[C@H](O)[C@H]3O)[C@H]3COC(=O)[C@H]23)OCO4)cc(OC)c1O` [etoposide]: the values for the IC50 in [5], in data set [7] and in data set [8] were 15.3 µM, 359 µM and 512 µM, respectively. In addition, in [6], the toxicity entry is given as “did not show any toxicity”.
As for dicycloplatin [DCP], the IC50 was 18.6 µM in [5]; 812 µM in data set [6]; 20.9 µM in data set [1]; 15.4 µM in data set [2]; 463 µM in data set [3]; 503 µM in [8]. Also, the IC50 in [4] (setting [10]) came to 1470 µM. Moreover, the toxicity entry in data set [7] was “no toxicity”. The “edema around the tumor, post-chemo CT” value in data set [9] (setting [11]) is given as “significantly relieved”. Moreover, the “tumor mass at the left of parietal lobe, post-chemo CT vs pre-chemo CT” value in data set [9] (setting [11]) was “shrunk”. In addition, the “edema around the tumor by MRI” value in [9] (setting [12]) is recorded as “relieved”. Moreover, the “tumor mass by MRI” value in [9] (setting [12]) is “shrunk”. Besides, in [4] (HL-7002 and HEK293 normal cells, compared to 5-FU), the “cellular toxicity lower than 5-FU” value is 4 fold.
